Assay results published in patent US20260191965A1 (priority 2022, published 2026).
Converted amounts (≈) assume the structure as drawn. Like-named read-outs stand apart in the source and are kept apart here.

Assays:
[1] = test system: M. tuberculosis Erdman pFCA LuxAB; settings: for Log reduction compared to untreated group / Log10 CFU counts in the lungs, Average: QD for 12 days; for Log reduction compared to untreated group / Log10 CFU counts in the lungs, Mouse A / Log10 CFU counts in the lungs, Mouse B / Log10 CFU counts in the lungs, Mouse C / Log10 CFU counts in the lungs, Mouse D / Log10 CFU counts in the lungs, Mouse E / Log10 CFU counts in the lungs, Mouse F / Log10 CFU counts in the lungs, Average: conjugate 100, linezolid 100, PA-824 50, rifampicin 10, metronidazole 200 mg/kg; for Log10 CFU counts in the lungs, Mouse A / Log10 CFU counts in the lungs, Mouse B / Log10 CFU counts in the lungs, Mouse C / Log10 CFU counts in the lungs, Mouse D / Log10 CFU counts in the lungs, Mouse E / Log10 CFU counts in the lungs, Mouse F / Log10 CFU counts in the lungs, Average: day 21; for Log10 CFU counts in the lungs, Mouse A / Log10 CFU counts in the lungs, Mouse B / Log10 CFU counts in the lungs, Mouse C / Log10 CFU counts in the lungs, Mouse D / Log10 CFU counts in the lungs, Mouse E / Log10 CFU counts in the lungs, Mouse F: QD for 12 days from day 7; for Log10 CFU counts in the lungs, Average: group average, 6 mice; for reduction compared to the vehicle group: conjugate 100, rifampicin 10, metronidazole 200 mg/kg
[2] = test system: clinical isolates of Mycobacterium tuberculosis; experiment: microbe, parasite or virus in culture; format: cell-based; settings: for MIC: Mycobacterium tuberculosis
[3] = test system: Mycobacterium tuberculosis H37Rv (ATCC 27294); format: cell-based; settings: for Log reduction in CFU: vs drug-free control
[4] = 168 h, clinical isolate strain 1, air with 5% CO2, 7H9/10% OADC, 7 days
[5] = 168 h, clinical isolate strain 2, air with 5% CO2, 7H9/10% OADC, 7 days
[6] = 168 h, clinical isolate strain 3, air with 5% CO2, 7H9/10% OADC, 7 days
[7] = 168 h, clinical isolate strain 4, air with 5% CO2, 7H9/10% OADC, 7 days
[8] = 168 h, clinical isolate strain 5, air with 5% CO2, 7H9/10% OADC, 7 days
[9] = 168 h, clinical isolate strain 6, air with 5% CO2, 7H9/10% OADC, 7 days
[10] = 168 h, clinical isolate strain 7, air with 5% CO2, 7H9/10% OADC, 7 days
[11] = 168 h, clinical isolate strain 8, air with 5% CO2, 7H9/10% OADC, 7 days
[12] = 168 h, clinical isolate strain 9, air with 5% CO2, 7H9/10% OADC, 7 days
[13] = 168 h, clinical isolate strain 10, air with 5% CO2, 7H9/10% OADC, 7 days
[14] = 168 h, clinical isolate strain 11 (sensitive strain), air with 5% CO2, 7H9/10% OADC, 7 days
[15] = read-out: MIC values against sensitive tuberculosis strains, sensitive tuberculosis strains, air containing 5% CO2

SMILES | Log reduction compared to untreated group ([1]; […]) | Log10 CFU counts in the lungs, Mouse A [1] | Log10 CFU counts in the lungs, Mouse B [1] | Log10 CFU counts in the lungs, Mouse C [1] | Log10 CFU counts in the lungs, Mouse D [1] | Log10 CFU counts in the lungs, Mouse E [1] | Log10 CFU counts in the lungs, Mouse F [1] | Log10 CFU counts in the lungs, Average [1] | MIC [2, 4] | MIC [2, 5] | MIC [2, 6] | MIC [2, 7] | MIC [2, 8] | MIC [2, 9] | MIC [2, 10] | MIC [2, 11] | MIC [2, 12] | MIC [2, 13] | CFU/mL ([3]; concentration 20 μg/mL) | Log reduction in CFU ([3]; concentration 20 μg/mL) | further results
O=[N+]([O-])c1cn2c(n1)OC[C@@H](OCc1ccc(OC(F)(F)F)cc1)C2 [PA-824] | 3.04 | 3.29 Log10 CFU | 4.00 Log10 CFU | 4.06 Log10 CFU | 3.65 Log10 CFU | 4.01 Log10 CFU | 3.97 Log10 CFU | 3.83 Log10 CFU |  |  |  |  |  |  |  |  |  |  |  |  | 
CC(=O)NC[C@H]1CN(c2ccc(N3CCOCC3)c(F)c2)C(=O)O1 [linezolid] | 1.57 | 5.86 Log10 CFU | 4.61 Log10 CFU | 5.76 Log10 CFU | 4.59 Log10 CFU | 5.13 Log10 CFU |  | 5.30 Log10 CFU |  |  |  |  |  |  |  |  |  |  |  |  | 
NNC(=O)c1ccncc1 [Isoniazid, isoniazid] |  |  |  |  |  |  |  |  | > 40 µg/mL | 2.5 µg/mL (≈ 18.2 µM) | 10 µg/mL (≈ 72.9 µM) | > 40 µg/mL | 5 µg/mL (≈ 36.5 µM) | 0.313 µg/mL (≈ 2.28 µM) | 5 µg/mL (≈ 36.5 µM) | 2.5 µg/mL (≈ 18.2 µM) | > 40 µg/mL | > 40 µg/mL |  |  | MIC [2, 14]: 0.039 µg/mL (≈ 0.284 µM); MIC [2, 15]: 0.039 µg/mL (≈ 0.284 µM); CFU/mL ([3]; concentration 10 μg/mL): 3.14E+08 CFU/mL; Log reduction in CFU ([3]; concentration 10 μg/mL): −0.12
Cc1ncc([N+](=O)[O-])n1CCO [Metronidazole, metronidazole] | 0.02 | 6.95 Log10 CFU | 6.95 Log10 CFU | 6.15 Log10 CFU | 6.60 Log10 CFU | 7.11 Log10 CFU | 7.31 Log10 CFU | 6.85 Log10 CFU | > 32 µg/mL | > 32 µg/mL | > 32 µg/mL | > 32 µg/mL | > 32 µg/mL | > 32 µg/mL | > 32 µg/mL | > 32 µg/mL | > 32 µg/mL | > 32 µg/mL | 1.66E+08 CFU/mL | 0.16 | MIC [2, 14]: > 32 µg/mL; activity against the tested strains ([2]; all tested strains, air containing 5% CO2): no activity; CFU/mL ([3]; concentration 50 μg/mL): 1.02E+08 CFU/mL; Log reduction in CFU ([3]; concentration 50 μg/mL): 0.37; reduction compared to the vehicle group ([1]; […], 12 consecutive days): 0.09 log CFU
CO[C@H]1/C=C/O[C@@]2(C)Oc3c(C)c(O)c4c(O)c(c(/C=N/N5CCN(C)CC5)c(O)c4c3C2=O)NC(=O)/C(C)=C\C=C\[C@H](C)[C@H](O)[C@@H](C)[C@@H](O)[C@@H](C)[C@H](OC(C)=O)[C@@H]1C [Rifampicin, rifampicin] | 0.58 | 6.29 Log10 CFU | 6.55 Log10 CFU | 6.66 Log10 CFU | 6.24 Log10 CFU | 5.52 Log10 CFU | 6.46 Log10 CFU | 6.29 Log10 CFU | > 40 µg/mL | 5 µg/mL (≈ 6.08 µM) | > 40 µg/mL | > 40 µg/mL | > 40 µg/mL | > 40 µg/mL | > 40 µg/mL | > 40 µg/mL | 20 µg/mL (≈ 24.3 µM) | 40 µg/mL (≈ 48.6 µM) | 1.23E+07 CFU/mL | 1.29 | MIC [2, 14]: 0.039 µg/mL (≈ 0.0474 µM); MIC [2, 15]: 0.039 µg/mL (≈ 0.0474 µM); CFU/mL ([3]; concentration 5 μg/mL): 2.19E+07 CFU/mL; Log reduction in CFU ([3]; concentration 5 μg/mL): 1.04; reduction compared to the vehicle group ([1]; […], 12 consecutive days): 0.65 log CFU
CO[C@H]1/C=C/O[C@@]2(C)Oc3c(C)c(O)c4c(c3C2=O)C2=NC3(CCN(CCn5c([N+](=O)[O-])cnc5C)CC3)NC2=C(NC(=O)/C(C)=C\C=C\[C@H](C)[C@H](O)[C@@H](C)[C@@H](O)[C@@H](C)[C@H](OC(C)=O)[C@@H]1C)C4=O | 4.18 | 2.48 Log10 CFU | 2.18 Log10 CFU | 3.02 Log10 CFU | 2.48 Log10 CFU | 3.80 Log10 CFU | 2.18 Log10 CFU | 2.69 Log10 CFU | 2 µg/mL (≈ 2.12 µM) | 0.5 µg/mL (≈ 0.53 µM) | 2 µg/mL (≈ 2.12 µM) | 2 µg/mL (≈ 2.12 µM) | 2 µg/mL (≈ 2.12 µM) | 1 µg/mL (≈ 1.06 µM) | 2 µg/mL (≈ 2.12 µM) | 2 µg/mL (≈ 2.12 µM) | 0.5 µg/mL (≈ 0.53 µM) | 1 µg/mL (≈ 1.06 µM) | 2.50E+03 CFU/mL | 4.98 | MIC [2, 14]: 0.016 µg/mL (≈ 0.0169 µM); MIC [2, 15]: 0.016 µg/mL (≈ 0.0169 µM); reduction of bacterial count of wild-type Mycobacterium Tuberculosis compared to the drug-free group ([3]; at both tested concentrations (20 μg/mL and 5 μg/mL)): > 4 Log10 CFU; CFU/mL ([3]; concentration 5 μg/mL): 9.75E+03 CFU/mL; Log reduction in CFU ([3]; concentration 5 μg/mL): 4.39; reduction compared to the pre-treatment ([1]; […], 100 mg/kg orally QD, 12 consecutive days): 0.69 log CFU; reduction compared to the vehicle group ([1]; […], 12 consecutive days): 4 log CFU; activity compared to vehicle, rifampicin, metronidazole, linezolid and PA-824 control groups ([1]; […], one-way ANOVA, 95% level of confidence): significantly superior; drug-related tolerance issues ([1]; mice, after 12 consecutive days of administration, 100 mg/kg QD): no drug-related tolerance issues were observed
CO[C@H]1/C=C/O[C@@]2(C)Oc3c(C)c(O)c4c(O)c(c(/C=N/N5CCN(C6CCCC6)CC5)c(O)c4c3C2=O)NC(=O)/C(C)=C\C=C\[C@H](C)[C@H](O)[C@@H](C)[C@@H](O)[C@@H](C)[C@H](OC(C)=O)[C@@H]1C [Rifapentine, rifapentine] |  |  |  |  |  |  |  |  |  |  |  |  |  |  |  |  |  |  | 1.91E+07 CFU/mL | 1.1 | CFU/mL ([3]; concentration 5 μg/mL): 1.80E+07 CFU/mL; Log reduction in CFU ([3]; concentration 5 μg/mL): 1.12
CO[C@H]1/C=C/O[C@@]2(C)Oc3c(C)c(O)c4c(c3C2=O)C2=NC3(CCN(CC(C)C)CC3)NC2=C(NC(=O)/C(C)=C\C=C\[C@H](C)[C@H](O)[C@@H](C)[C@@H](O)[C@@H](C)[C@H](OC(C)=O)[C@@H]1C)C4=O [Rifabutin, rifabutin] |  |  |  |  |  |  |  |  |  |  |  |  |  |  |  |  |  |  | 7.19E+06 CFU/mL | 1.52 | CFU/mL ([3]; concentration 5 μg/mL): 9.77E+07 CFU/mL; Log reduction in CFU ([3]; concentration 5 μg/mL): 0.39
